Measurements: patent US20200077656A1, “Use of an Acyclic Picolinamide Compound as a Fungicide for Control of Phytopathogenic Fungi in Row Crops” (priority 2017, published 2020)
Where two headings read alike, the source gives them in different places.

Key:
[1] = tested on: Cercosporidium personatum; assay: Field assessment of Cercosporidium personatum (MYCOBE) in peanut; type: in vivo; settings: Table 9, late leaf spot of peanut, AUDPC based
[2] = tested on: Puccinia polysora; assay: Field assessment of Puccinia polysora (PUCCPY) in corn; type: in vivo; settings: EC + Trycol adjuvant
[3] = tested on: Magnaporthe grisea; type: in vivo; settings: two applications, EC + Trycol adjuvant, rice
[4] = tested on: soybean (GLYMX, Glycine max); assay: Yield of soybean in Cercospora sojina field trials; type: in vivo; settings: harvest at crop maturity
[5] = tested on: Cercospora beticola; assay: Field assessment of Cercospora beticola (CERCBE) on sugar beet, two trials averaged; type: in vivo
Method: Field Assessment of Cercospora beticola (CERCBE) on Sugar Beet: Assessment of compound I of CERCBE on sugar beet was performed in two separate field trials. In the first trial, a fungicidal treatment containing an EC and SC formulations of compound I by itself and in combination with an adjuvant (Phase II, 50% w/w at 0.5% v/v) was sprayed on sugar beet plants ([…] variety) six times during the course of 7 weeks at the 18-39 growth stages of sugar beet. […] In the second trial, a fungicidal treatment containing an EC and SC formulations of compound I by itself and in combination with an adjuvant (Phase II, 50% w/w at 0.5% v/v) was sprayed on sugar beet plants (BEAVA) five times during the course of 4 weeks at the 36-49 growth stages of sugar beet. […] Disease severity was recorded as a percentage of visual diseased foliage on whole plot. Cercospora leaf spot infection was assessed three times at 7, 14 and 21 days after the last application. The disease infection was recorded following EPPO PP 1/1 (4) guideline prescriptions. Area under the disease progress curve (AUDPC) was calculated for each plot using the sets of recorded severity data. Relative AUDPC (% control based on AUDPC) was calculated as percent of the nontreated control and averaged over both field trials.

[6] = tested on: peanut (ARHHY, Arachis hypogaea); assay: Yield of peanut in Sclerotium rolfsii field trials; type: in vivo; settings: 49 DAAD
[7] = tested on: Sclerotium rolfsii; assay: Field assessment of Sclerotium rolfsii (SCLORO) in peanut, percent stem incidence; settings: 42 DAAD, untreated 41.8
Method: Four applications, at two week intervals were made to each trial, starting at growth stage BBCH66 and continuing through BBCH84. The experimental plots were conducted with natural infestation of the pathogen. The treatment was part of an experimental trial designed as a randomized complete block (RCB) with four replications and a plot of approximately 6×40 ft.
Percent stem incidence (percent of stems with any disease, based on 80 stems counted per plot) was assessed at 42 days after application D (42 DAAD).

[8] = tested on: Ramularia collo-cygni; assay: Field assessment of Ramularia collo-cygni (RAMUCC) on barley; type: in vivo; settings: 5% EC + Trycol adjuvant, winter barley
Method: Field Assessment of Ramularia […]) on Barley: A fungicidal treatment containing a 5% EC formulation of compound I, tanked mixed with an adjuvant (Trycol, 50% w/w at 0.1% v/v), was sprayed on barley plants (winter barley; Cassia variety) at BBCH 33 growth stage of winter barley (5% infection on L5 at application), under natural infection of Ramularia leaf spot of barley. […] Disease severity was recorded as a percentage of visual diseased foliage on whole plot. Ramularia leaf spot of barley infection was assessed three times at 7, 14 and 21 days after the last application. The disease infection was recorded following EPPO PP1/26 guideline prescriptions. Area under the disease progress curve (AUDPC) was calculated for each plot using the sets of recorded severity data. Relative AUDPC (% control based on AUDPC) was calculated as percent of the nontreated control.

[9] = tested on: Cercospora zeae-maydis; assay: Field assessment of Cercospora zeae-maydis (CERCZM) in corn; type: in vivo; settings: EC + Trycol adjuvant
Method: Field Assessment of Cercospora zeae-Maydis (CERCZM) in Corn: […] The experimental plots were inoculated with grey leaf spot 24 hr after application. […] Disease severity (percentage of visual diseased foliage on whole plot) was assessed five times during the trial (22-50 days after application, DAA). The disease infection was recorded following EPPO PP1/26 guideline prescriptions. Area under the disease progress curve (AUDPC) was calculated for each plot using the sets of recorded severity data. Relative AUDPC (% control based on AUDPC) was calculated as percent of the nontreated control.

[10] = 50 g/ha, Agnique BP420 200 mL/ha
[11] = 75 g/ha, Agnique BP420 300 mL/ha
[12] = 100 g/ha, Adsee C80W 80% 250 g/ha
[13] = 100 g/ha, Agnique BP420 400 mL/ha
[14] = 150 g/ha, Agnique BP420 600 mL/ha

With `COc1ccnc(C(=O)N[C@@H](C)C(=O)O[C@@H](C)C(c2ccc(F)cc2)c2ccc(F)cc2)c1OC(C)=O` [Compound I, (S)-1,1-bis(4-fluorophenyl)propan-2-yl (3-acetoxy-4-methoxypicolinoyl)-L-alaninate] the “Calc Percent Control of MYCOBE” value [1, 10] was 28.5%, the “Calc Percent Control of MYCOBE” value ([1]; 50 g/ha, MSO 100 g/ha) was 24.0% and the “Calc Percent Control of MYCOBE” value [1, 11] was 30.0%. The “Calc Percent Control of MYCOBE” value ([1]; 75 g/ha, MSO 150 g/ha) was 26.8%, the “Calc Percent Control of MYCOBE” value [1, 12] was 26.9% and the “Calc Percent Control of MYCOBE” value [1, 13] was 36.0%. For the same molecule, the “Calc Percent Control of MYCOBE” value ([1]; 100 g/ha, MSO 200 g/ha) was 29.0%, the “Calc Percent Control of MYCOBE” value [1, 14] was 44.7% and the “Calc Percent Control of MYCOBE” value ([1]; 150 g/ha, MSO 300 g/ha) was 38.5%. For the same molecule, the “Disease control of PUCCPY, percent control based on AUDPC” value ([2]; 50 g ai/ha) was “C (26-50)”, the “Disease control of PUCCPY, percent control based on AUDPC” value ([2]; 100 g ai/ha) was “B (51-75)” and the “Disease control of PUCCPY, percent control based on AUDPC” value ([2]; 150 g ai/ha) was “B (51-75)”. For the same molecule, the “Disease control of PYRIOR, percent control based on AUDPC” value ([3]; 50 g ai/ha) was “C (26-50)”, the “Disease control of PYRIOR, percent control based on AUDPC” value ([3]; 100 g ai/ha) was “C (26-50)” and the “Disease control of PYRIOR, percent control based on AUDPC” value ([3]; 150 g ai/ha) was “B (51-75)”. The “Disease control of PYRIOR, percent control based on AUDPC” value ([3]; 200 g ai/ha) was “B (51-75)”, the “GLXMA Yield Percent of Untreated” value [4, 10] was 117.0% and the “GLXMA Yield Percent of Untreated” value ([4]; 50 g/ha, MSO 100 g/ha) was 108.0%. For the same molecule, the “GLXMA Yield Percent of Untreated” value [4, 11] was 119.2%, the “GLXMA Yield Percent of Untreated” value ([4]; 75 g/ha, MSO 150 g/ha) was 114.6% and the “GLXMA Yield Percent of Untreated” value [4, 12] was 115.3%. For the same molecule, the “GLXMA Yield Percent of Untreated” value [4, 13] was 117.6%, the “GLXMA Yield Percent of Untreated” value ([4]; 100 g/ha, MSO 200 g/ha) was 113.4% and the “GLXMA Yield Percent of Untreated” value [4, 14] was 114.8%. The “GLXMA Yield Percent of Untreated” value ([4]; 150 g/ha, MSO 300 g/ha) was 112.9%, the “% Control (AUDPC) of CERCBE” value ([5]; EC, 75 g ai/ha, no adjuvant) was “B (51-75)” and the “% Control (AUDPC) of CERCBE” value ([5]; EC, 75 g ai/ha, with Phase II adjuvant) was “B (51-75)”. The “% Control (AUDPC) of CERCBE” value ([5]; EC, 150 g ai/ha, no adjuvant) was “A (76-100)”, the “% Control (AUDPC) of CERCBE” value ([5]; SC, 75 g ai/ha, no adjuvant) was “B (51-75)” and the “% Control (AUDPC) of CERCBE” value ([5]; SC, 75 g ai/ha, with Phase II adjuvant) was “B (51-75)”. For the same molecule, the “% Control (AUDPC) of CERCBE” value ([5]; SC, 150 g ai/ha, no adjuvant) was “A (76-100)”, the “ARHHY Yield Percent of Untreated” value [6, 10] was 96.4% and the “ARHHY Yield Percent of Untreated” value ([6]; 50 g/ha, MSO 100 g/ha) was 104.9%. The “ARHHY Yield Percent of Untreated” value [6, 11] was 113.9%, the “ARHHY Yield Percent of Untreated” value ([6]; 75 g/ha, MSO 150 g/ha) was 112.8% and the “ARHHY Yield Percent of Untreated” value [6, 12] was 122.0%. The “ARHHY Yield Percent of Untreated” value [6, 13] was 118.0%, the “ARHHY Yield Percent of Untreated” value ([6]; 100 g/ha, MSO 200 g/ha) was 115.7% and the “ARHHY Yield Percent of Untreated” value [6, 14] was 130.0%. For the same molecule, the “ARHHY Yield Percent of Untreated” value ([6]; 150 g/ha, MSO 300 g/ha) was 131.5%, the “Calc Percent Stem Incidence of SCLORO” value [7, 10] was 41.6% and the “Calc Percent Stem Incidence of SCLORO” value ([7]; 50 g/ha, MSO 100 g/ha) was 39.1%. For the same molecule, the “Calc Percent Stem Incidence of SCLORO” value [7, 11] was 33.2%, the “Calc Percent Stem Incidence of SCLORO” value ([7]; 75 g/ha, MSO 150 g/ha) was 33.0% and the “Calc Percent Stem Incidence of SCLORO” value [7, 13] was 27.9%. For the same molecule, the “Calc Percent Stem Incidence of SCLORO” value ([7]; 100 g/ha, MSO 200 g/ha) was 28.2%, the “Calc Percent Stem Incidence of SCLORO” value [7, 14] was 29.6% and the “Calc Percent Stem Incidence of SCLORO” value ([7]; 150 g/ha, MSO 300 g/ha) was 24.7%. The “Disease control of RAMUCC, percent control based on AUDPC” value ([8]; 75 g ai/ha) was “C (26-50)”, the “Disease control of RAMUCC, percent control based on AUDPC” value ([8]; 100 g ai/ha) was “C (26-50)” and the “Disease control of RAMUCC, percent control based on AUDPC” value ([8]; 150 g ai/ha) was “B (51-75)”. The “Disease control of CERCZM, percent control based on AUDPC” value ([9]; 50 g ai/ha) was “B (51-75)”, the “Disease control of CERCZM, percent control based on AUDPC” value ([9]; 100 g ai/ha) was “B (51-75)” and the “Disease control of CERCZM, percent control based on AUDPC” value ([9]; 150 g ai/ha) was “B (51-75)”.
